Laboratory results published in US8114629B2, “Site specific incorporation of keto amino acids into proteins” (The Scripps Research Institute, priority 2002, dated 2012).
≈ marks a conversion by molar mass, not a printed value. Where two headings read alike, the source gives them in different places.

Key:
mutRNA^TyrCUA/LW1RS = target: T1, mutRNA^TyrCUA/LW1RS (Methanocaldococcus jannaschii, UniProt Q57834, D158G/I159C/L162R/Y32L); format: cell-based, Methanococcus jannaschii; conditions: mutant Z domain (Lys7TAG); from signal-to-noise ratio of more than 1500 in the intact protein mass spectrum
T1 construct: The mutant synthetase gene isolated from clone LW1 (LW1RS) was encoded in plasmid pBKLW1RS; expressed in transfected cells; host or cells: E. coli DH10B cotransformed with pLEIZ and pBK-LW1RS
Excerpt: Protein expression and purification: Plasmid pLEIZ was used to express the Z-domain gene with an amber codon at the 7th position and a COOH-terminal His6 tag under the control of a bacteriophage T5 promoter and t0 terminator, and the mutRNA^TyrCUA gene under the control of the lpp promoter and rrnC terminator. The mutant synthetase gene isolated from clone LW1 (LW1RS) was encoded in plasmid pBKLW1RS under the control of the constitutive E. coli GlnRS promoter and terminator. E. coli DH10B cells cotransformed with pLEIZ and pBK-LW1RS were grown in minimal media containing 1% glycerol and 0.3 mM leucine (GMML media) with 25 μg/mL kanamycin, 34 μg/mL of chloramphenicol, and 1.0 mM p-acetyl-(±)-phenylalanine. When cells reach an OD600 of 0.5, isopropyl-β-D-thiogalactopyranoside (IPTG) (1 mM) was added to induce protein expression. After 5 hours, cells were pelleted and the protein was purified by Ni^2+ affinity chromatography under denaturing conditions according to the manufacturer's protocol (Qiagen, Valencia, Calif.). […] The yield of protein was measured by Bradford assay (BCA kit, Biorad, Hercules, Calif.). […]
Both the wt Z domain protein expressed by mutRNA^TyrCUA/wt TyrRS and the mutant Z domain protein expressed by the mutRNA^TyrCUA/LW1RS were analyzed by electrospray ionization Fourier transform ion cyclotron resonance mass spectrometry (FT-ICR MS). […]

E. coli DH10B cells = assay: growth of cells in the presence of the unnatural amino acid during Z domain expression; conditions: 1 mM; cells transformed with mutRNA^TyrCUA, LW1RS and Z domain gene (Lys7TAG)
Experimental: E. coli DH10B cells cotransformed with pLEIZ and pBK-LW1RS were grown in minimal media containing 1% glycerol and 0.3 mM leucine (GMML media) with 25 μg/mL kanamycin, 34 μg/mL of chloramphenicol, and 1.0 mM p-acetyl-(±)-phenylalanine. When cells reach an OD600 of 0.5, isopropyl-β-D-thiogalactopyranoside (IPTG) (1 mM) was added to induce protein expression.
Cells transformed with the mutRNA^TyrCUA, LW1RS and Z domain gene (Lys7TAG) were grown in the presence of 1 mM p-acetyl-(±)-phenylalanine.

[1] = test system: cells harboring the one of the three mutant TyrRS plasmids; assay: chloramphenicol resistance of cells harboring mutant TyrRS plasmids selected for m-acetyl phenylalanine; format: cell-based
Excerpt: Preparation of mutant TyrRS library plasmids: A library of plasmids encoding mutant M. jannaschii TryRSs directed at meta-substituted tyrosine derivatives was constructed, generally following the methods described in Example 1 of WO 2002/085923. Briefly, six residues (Tyr^32, Ala^67, His^70, Gln^155, Asp^158, Ala^167) in the active site of M. jannaschii TyrRS that are within 6.9 Å of the meta-position of the aryl ring of bound tyrosine in the crystal structure of Bacillus stearothermophilus TyrRS were mutated to all 20 amino acids at DNA level using the NNK codon scheme as described in Example 1 above. The constructed plasmid library pBK-lib contained around 1×10^9 independent clones.
Evolution of orthogonal tRNA-synthetase pairs for incorporation of m-acetyl phenylalanine: After 3 rounds of positive selection and 2 rounds of negative selection, five candidate clones (SEQ ID NO: 17-21 of WO 2002/085923 and SEQ ID NO: 49-53 of WO 2002/085923) emerged whose survival in chloramphenicol was dependent on the addition of the unnatural amino acid. In the absence of m-acetyl phenylalanine, the IC50 of chloramphenicol resistance for cells harboring the one of the three mutant TyrRS plasmids is 20 μg/ml. In the presence of m-acetyl phenylalanine, the IC50 of resistance to chloramphenicol for the same cells is 100 μg/ml. […]

[2] = test system: E. coli cells expressing mutant TyrRS and mutRNA^TyrCUA; assay: in vivo assay based on suppression of the Asp112TAG codon in the CAT gene (chloramphenicol resistance), p-acetyl-L-phenylalanine synthetases; format: cell-based; conditions: Escherichia coli, read-out: IC50 value chloramphenicol, eleven mutant TyrRS

T1 sequence (Q57834 whole entry Y32L/D158G/I159C/L162R): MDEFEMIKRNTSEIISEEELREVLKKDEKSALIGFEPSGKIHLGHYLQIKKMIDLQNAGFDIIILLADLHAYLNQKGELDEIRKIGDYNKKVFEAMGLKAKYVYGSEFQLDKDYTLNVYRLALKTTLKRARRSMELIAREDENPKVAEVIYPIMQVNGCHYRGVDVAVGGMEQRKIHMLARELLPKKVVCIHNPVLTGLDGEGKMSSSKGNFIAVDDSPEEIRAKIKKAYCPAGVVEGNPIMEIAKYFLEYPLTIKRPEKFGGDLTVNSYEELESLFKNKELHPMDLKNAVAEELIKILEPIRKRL

## CC(=O)c1ccc(C[C@H](N)C(=O)O)cc1 [p-acetyl-L-phenylalanine]
mutRNA^TyrCUA/LW1RS
  fidelity for the incorporation: > 99.8%

## CC(=O)c1ccc(CC(N)C(=O)O)cc1 (racemic) [p-acetyl-(±)-phenylalanine]
E. coli DH10B cells
  effect on growth rate of cells: did not affect the growth rate of cells

## O=C(N[C@H](CO)[C@H](O)c1ccc([N+](=O)[O-])cc1)C(Cl)Cl [chloramphenicol]
[1]; in the presence of m-acetyl phenylalanine, read-out: IC50 of resistance to chloramphenicol
  IC50: 100 µg/mL
[1]; read-out: IC50 of chloramphenicol resistance
  IC50: 20 µg/mL (≈ 61.9 µM)
[2]; in the absence of p-acetyl-L-phenylalanine
  IC50: 9 µg/mL (≈ 27.9 µM)
[2]; in the presence of p-acetyl-L-phenylalanine
  IC50: 120 µg/mL
